The IC50 is the concentration at which inhibition is half-maximal.

Structures are written as SMILES. Where a name gives a salt, the structure may show the parent alone.

Assay [1] deals with Anti-cotinine antibody (SEQ ID NO: 11 / SEQ ID NO: 12). Put plainly: Binding of Anti-Cotinine Antibody to ARM Compounds measured by Surface Plasmon Resonance (SPR). Further details: species or system rabbit variable region with human IgG1 Fc domain. As to conditions: Biacore T200, 37° C., Kd = koff/kon, average if several runs. The protocol: Anti-cotinine antibodies having a heavy chain sequence of SEQ ID NO: 11 and a light chain sequence of SEQ ID NO: 12 (rabbit variable region with human IgG1 Fc domain containing a DE mutation (S239D/I332E)) were captured on one or more flow cells of a protein A sensor chip (Cytiva) using a Biacore T200 while reserving flow cell 1 as a reference. Following capture, a 3000 second wait step was included to reduce drift during compound analysis. ARM compounds of Formula (I) were then injected at 100 μL/min with 200 and 2000 second association and dissociation times. The entire experiment was run at 37° C. with running buffer containing 10 mM HEPES pH 7.4, 150 mM NaCl, 0.005% P20 and 1% DMSO. ARM compounds of Formula (I) were titrated with a top concentration of 200 nM using a 3-fold 5-point dilution series and a corresponding 5-injection buffer cycle was run for blank subtraction. Data were double referenced by subtracting the response of the reference flow cell from that of the antibody-containing flow cell and subsequently subtracting the referenced blank sensorgrams. Following compound analysis, the surface was regenerated using a 30 second injection of pH 1.5 glycine at a flow rate of 30 μL/min after which antibody was re-captured. The experiment was run using Biacore T200 control software and evaluated using Biacore T200 Evaluation software. Curves were fit with a 1:1 kinetic binding model to obtain kon(1/Ms), koff(1/s), Kd (M) determined as koff/kon, and residence time determined as 1/koff. (s).
Anti-cotinine antibody was tested for binding to ARMs compounds of Formula (I) of the invention in the above assay in or more experimental runs and the results are shown in Table 5 below. Affinity is reported as a pKd value. The pKd value is the negative log of the Kd value, wherein the Kd value is the dissociation constant measured in molar (M) as noted above. For compounds tested in more than one experimental run, the pKd value is reported as an average
In general terms: In SPR one partner is held on a chip, and binding of the other changes the refractive index at the surface.

Assay [2] has as its target human alpha1 nicotinic acetylcholine (nACh) receptor (Homo sapiens, UniProt P02708+Q07001). Nature of the assay: Nicotinic Acetylcholine Receptor Antagonism Assay (IONFlux automated patch clamp). The assay is classed as cell-based. In outline: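 Human α1 nAChR-expressing cells were exposed to compound in dose response (top concentration 10 μM or 100 μM), then stimulated with 10 mM ACh. Peak currents were recorded by IONFlux automated patch clamp. Inhibition versus ACh alone was vehicle- and run-down-corrected and fit nonlinearly for IC50, with recordings below 500 pA control current excluded.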
On the technique in general: In patch-clamp work, channel activity is measured electrically.

In assay [3] the target is T1, CHOK1 cells engineered to overexpress human CCR2 (Homo sapiens, UniProt P41597).
T1 construct: expressed in transfected cells; host or cells: CHOK1
Put plainly: Antibody Dependent Cellular Cytotoxicity (ADCC) Reporter Assay. The assay is classed as cell-based. As to conditions: with anti-cotinine antibody (human IgG1 Fc, S239D/I332E); Jurkat FcγRIIIa NFAT-luciferase reporter cells; average if several runs; read-out: ADCC Reporter Assay pEC50 (converted). Put shortly: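 CHOK1-hCCR2 target cells co-incubated ~12-18 h with compound (1 pM–10 μM), anti-cotinine rabbit/human IgG1 S239D/I332E antibody (0.01–200 μg/mL) and Jurkat FcγRIIIa NFAT-luciferase reporter cells. Luminescence signal:background versus no-compound wells; EC50 from four-parameter fit, reported as pEC50, averaged over runs.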

human alpha1 nicotinic acetylcholine (nACh) receptor, sequence (P02708 21-457): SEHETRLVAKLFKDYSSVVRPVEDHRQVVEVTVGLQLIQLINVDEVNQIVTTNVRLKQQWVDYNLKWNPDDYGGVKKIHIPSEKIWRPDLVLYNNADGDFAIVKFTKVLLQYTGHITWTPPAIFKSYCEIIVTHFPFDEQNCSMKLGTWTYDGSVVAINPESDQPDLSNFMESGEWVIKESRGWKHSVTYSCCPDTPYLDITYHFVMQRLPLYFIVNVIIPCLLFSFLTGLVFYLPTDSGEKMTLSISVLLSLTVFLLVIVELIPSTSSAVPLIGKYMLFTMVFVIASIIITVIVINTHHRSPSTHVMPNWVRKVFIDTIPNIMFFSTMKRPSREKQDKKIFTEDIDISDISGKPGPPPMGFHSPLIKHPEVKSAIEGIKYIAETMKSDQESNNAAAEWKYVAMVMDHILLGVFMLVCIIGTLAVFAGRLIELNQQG
human alpha1 nicotinic acetylcholine (nACh) receptor, sequence (P11230 24-501 partner): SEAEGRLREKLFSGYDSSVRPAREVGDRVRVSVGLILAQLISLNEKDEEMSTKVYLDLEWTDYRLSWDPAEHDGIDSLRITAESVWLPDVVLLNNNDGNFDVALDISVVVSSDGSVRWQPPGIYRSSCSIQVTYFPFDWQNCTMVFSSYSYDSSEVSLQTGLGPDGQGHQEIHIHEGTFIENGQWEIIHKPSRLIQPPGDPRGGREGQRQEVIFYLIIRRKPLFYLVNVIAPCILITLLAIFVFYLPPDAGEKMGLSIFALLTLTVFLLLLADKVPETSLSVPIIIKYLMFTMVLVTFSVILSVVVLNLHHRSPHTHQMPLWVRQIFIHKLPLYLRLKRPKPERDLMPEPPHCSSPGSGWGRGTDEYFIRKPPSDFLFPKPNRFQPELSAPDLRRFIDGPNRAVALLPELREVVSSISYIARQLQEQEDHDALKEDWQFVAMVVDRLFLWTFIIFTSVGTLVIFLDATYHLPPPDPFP
human alpha1 nicotinic acetylcholine (nACh) receptor, sequence (Q07001 22-517): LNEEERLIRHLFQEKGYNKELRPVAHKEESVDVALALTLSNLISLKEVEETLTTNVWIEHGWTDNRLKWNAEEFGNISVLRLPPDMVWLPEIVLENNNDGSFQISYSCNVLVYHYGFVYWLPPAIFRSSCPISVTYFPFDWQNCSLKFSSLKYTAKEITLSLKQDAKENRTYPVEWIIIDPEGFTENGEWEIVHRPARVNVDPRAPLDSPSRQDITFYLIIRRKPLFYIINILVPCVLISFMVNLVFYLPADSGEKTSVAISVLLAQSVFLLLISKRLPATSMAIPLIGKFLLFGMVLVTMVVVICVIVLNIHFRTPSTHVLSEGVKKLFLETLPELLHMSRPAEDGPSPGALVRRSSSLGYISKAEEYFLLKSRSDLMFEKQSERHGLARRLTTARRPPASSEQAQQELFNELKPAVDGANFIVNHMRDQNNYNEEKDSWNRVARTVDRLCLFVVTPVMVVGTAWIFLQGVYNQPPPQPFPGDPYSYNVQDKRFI

For the molecule `CO[C@@H]1COCC[C@@H]1N[C@@H]1CC[C@@](C(=O)N2Cc3cc(C(F)(F)F)cnc3[C@H](NC(=O)[C@H]3CC[C@H](NC(=O)CCCO[C@H]4CC[C@H](OCCNC(=O)[C@H]5CC(=O)N(C)[C@@H]5c5cccnc5)CC4)CC3)C2)(C(C)C)C1` [Example 14, (2S,3S)-N-(2-(((1R,4S)-4-(4-(((1R,4R)-4-(((R)-6-((1S,3R)-1-isopropyl-3-(((3S,4S)-3-methoxytetrahydro-2H-pyran-4-yl)amino)cyclopentane-1-carbonyl)-3-(trifluoromethyl)-5,6,7,8-tetrahydro-1,6-naphthyridin-8-yl)carbamoyl)cyclohexyl)amino)-4-oxobutoxy)cyclohexyl)oxy)ethyl)-1-methyl-5-oxo-2-(pyridin-3-yl)pyrrolidine-3-carboxamide, 3Formic acid salt], in assay [1], the “pKd of Antibody for ARM Compound of Formula (I)” value came to 9.0. In assay [2] (antagonism of nAChR stimulated with acetylcholine, average if several runs), this molecule gave an IC50 of over 100 µM. In assay [2] (maximum percentage antagonism at Maximum Concentration of Compound Tested 100 μM, read-out: Maximum Response (%)), the Emax at 100 µM amounted to 38%. In addition, in assay [3], the EC50 was under 2 pM.

Values taken from patent publication US20250154288A1, “CYTOTOXICITY TARGETING CHIMERAS FOR C-C CHEMOKINE RECEPTOR 2-EXPRESSING CELLS” (GLAXOSMITHKLINE INTELLECTUAL PROPERTY DEVELOPMENT LIMITED, priority 2022, published 2025).
